Source: patent US7964624B1, “Inhibitors of serine proteases” (priority 2005, dated 2011)

target: T1, HCV NS3 protease domain (Hepatitis C virus genotype 1b, UniProt Q9WMX2); experiment: biochemical; settings: Enzyme Assay 1 (HCV NS3 Protease Domain Peptide Cleavage Assay) activity, apparent Ki class
T1 construct: The first 181 amino acids of NS3 (residues 1027-1207 of the viral polyprotein); hexa-histidine (C); made in house; host or cells: E. coli BL21/DE3 pLysS
T1 sequence (Q9WMX2 1027-1207, other chains not shown): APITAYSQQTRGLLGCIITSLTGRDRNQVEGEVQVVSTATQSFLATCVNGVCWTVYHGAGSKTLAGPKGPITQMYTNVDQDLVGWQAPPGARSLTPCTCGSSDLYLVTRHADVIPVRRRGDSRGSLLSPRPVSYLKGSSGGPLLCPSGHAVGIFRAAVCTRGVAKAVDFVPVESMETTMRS

Structure (SMILES) | Ki
CCC[C@H](NC(=O)[C@@H]1C[C@]2(CC(c3ccccc3)=NO2)CN1C(=O)[C@@H](NS(=O)(=O)c1cccc2ccccc12)C(C)(C)C)C(=O)C(=O)NC1CC1 [Compound 101] | > 500 nM
CCC[C@H](NC(=O)[C@@H]1C[C@]2(CC(c3cccc(Cl)c3)=NO2)CN1C(=O)[C@@H](NC(=O)Cc1cccc(OC)c1)C(C)(C)C)C(=O)C(=O)NC1CC1 [Compound 287] | 100 to 500 nM
CCC[C@H](NC(=O)[C@@H]1C[C@]2(CC(c3cccc(Cl)c3)=NO2)CN1C(=O)[C@@H](NC(=O)NC(C)C)C(C)(C)C)C(=O)C(=O)NC1CC1 [Compound 379] | < 100 nM
CCC[C@H](NC(=O)[C@@H]1C[C@]2(CC(c3cccc(Cl)c3)=NO2)CN1C(=O)[C@@H](NC(=O)Cc1ccccc1C)C(C)(C)C)C(=O)C(=O)NC1CC1 [Compound 431] | 100 to 500 nM
CCC[C@H](NC(=O)[C@@H]1C[C@]2(CC(c3cccc(Cl)c3)=NO2)CN1C(=O)[C@@H](NC(=O)OCCc1ccsc1)C(C)(C)C)C(=O)C(=O)NC1CC1 [Compound 159] | 100 to 500 nM
CCC[C@H](NC(=O)[C@@H]1C[C@]2(CC(c3cccc(Cl)c3)=NO2)CN1C(=O)[C@@H](NC(=O)CC1CCCCC1)C(C)(C)C)C(=O)C(=O)NCC [Compound 140] | 100 to 500 nM
CCC[C@H](NC(=O)[C@@H]1C[C@]2(CC(c3cccc(Cl)c3)=NO2)CN1C(=O)c1cc2cc(OC)c(OC)cc2[nH]1)C(=O)C(=O)NC1CC1 [Compound 157] | > 500 nM
CCC[C@H](NC(=O)[C@@H]1C[C@]2(CC(c3cccc(Cl)c3)=NO2)CN1C(=O)[C@@H](NC(=O)OCc1ccccn1)C(C)(C)C)C(=O)C(=O)NC1CC1 [Compound 378] | 100 to 500 nM
CCC[C@H](NC(=O)[C@@H]1C[C@]2(CC(c3cccc(Cl)c3)=NO2)CN1C(=O)[C@@H](NC(=O)NCC)C1CCCCC1)C(=O)C(=O)NC1CC1 [Compound 103] | 100 to 500 nM
CCC[C@H](NC(=O)[C@@H]1C[C@]2(CC(c3ccc(OC)cc3OC)=NO2)CN1C(=O)[C@@H](NC(=O)O[C@H]1CCOC1)C(C)(C)C)C(=O)C(=O)NC1CC1 [Compound 516] | > 500 nM
CCCC1=NO[C@]2(C1)C[C@@H](C(=O)N[C@@H](CCC)C(=O)C(=O)NC1CC1)N(C(=O)[C@@H](NC(=O)OCc1ccccc1)C(C)(C)C)C2 [Compound 235] | > 500 nM
CCC[C@H](NC(=O)[C@@H]1C[C@]2(CC(c3cccc(Cl)c3)=NO2)CN1C(=O)[C@@H](NC(=O)CCc1ccc(F)cc1)C(C)(C)C)C(=O)C(=O)NC1CC1 [Compound 7] | > 500 nM
CCC[C@H](NC(=O)[C@@H]1C[C@]2(CC(c3ccc(Cl)c(Cl)c3)=NO2)CN1C(=O)[C@@H](NC(=O)CC1CCOCC1)C(C)(C)C)C(=O)C(=O)NC1CC1 [Compound 78] | 100 to 500 nM
CCC[C@H](NC(=O)[C@@H]1C[C@]2(CC(c3cccc(C(F)(F)F)c3)=NO2)CN1C(=O)[C@@H](NC(=O)O[C@H]1CCOC1)C(C)(C)C)C(=O)C(=O)NC1CC1 [Compound 560] | 100 to 500 nM
CCC[C@H](NC(=O)[C@@H]1C[C@]2(CC(c3cccc(Cl)c3)=NO2)CN1C(=O)[C@@H](NC(=O)OCc1cc(F)ccc1F)C(C)(C)C)C(=O)C(=O)NC1CC1 [Compound 561] | 100 to 500 nM
CCC[C@H](NC(=O)[C@@H]1C[C@]2(CC(c3cccc(Cl)c3)=NO2)CN1C(=O)[C@@H](NC(=O)C1(O)CCCC1)C(C)(C)C)C(=O)C(=O)NC1CC1 [Compound 20] | > 500 nM
CCC[C@H](NC(=O)[C@@H]1C[C@]2(CC(c3cccc(Cl)c3)=NO2)CN1C(=O)[C@@H](NC(=O)[C@](C)(O)c1ccccc1)C(C)(C)C)C(=O)C(=O)NC1CC1 [Compound 139] | > 500 nM
CCC[C@H](NC(=O)[C@@H]1C[C@]2(CC(c3ccc(Br)o3)=NO2)CN1C(=O)[C@@H](NC(=O)CC1CCCCC1)C(C)(C)C)C(=O)C(=O)NC1CC1 [Compound 179] | 100 to 500 nM
CCC[C@H](NC(=O)[C@@H]1C[C@]2(CC(Cc3ccccc3)=NO2)CN1C(=O)[C@@H](NC(=O)O[C@H]1CCOC1)C(C)(C)C)C(=O)C(=O)NC1CC1 [Compound 251] | > 500 nM
CC(C)(C)NC(=O)N[C@H](C(=O)N1C[C@@]2(CC(c3cccc(Cl)c3)=NO2)C[C@H]1C(=O)NC(CC1CCC1)C(=O)C(N)=O)C(C)(C)C (stereo partly drawn) [Compound 247] | < 100 nM
CCC[C@H](NC(=O)[C@@H]1C[C@]2(CC(c3cccc(Cl)c3)=NO2)CN1C(=O)CNC(=O)NCc1ccccc1)C(=O)C(=O)NC1CC1 [Compound 205] | > 500 nM
CCC[C@H](NC(=O)[C@@H]1C[C@]2(CC(c3cccc(Cl)c3)=NO2)CN1C(=O)[C@@H](NC(=O)[C@H]1CC[C@@H](OC)CC1)C(C)(C)C)C(=O)C(=O)NC1CC1 [Compound 108] | 100 to 500 nM
CCC[C@H](NC(=O)[C@@H]1C[C@]2(CC(c3ccc(OC)cc3OC)=NO2)CN1C(=O)[C@@H](NC(=O)CC1CCCCC1)C(C)(C)C)C(=O)C(=O)NC1CC1 [Compound 166] | 100 to 500 nM
CCC[C@H](NC(=O)[C@@H]1C[C@]2(CC(c3ccc4c(c3)OCO4)=NO2)CN1C(=O)[C@@H](NC(=O)[C@@H](NC(=O)c1cnccn1)C(C)(C)C)C(C)(C)C)C(=O)C(=O)NC1CC1 [Compound 450] | < 100 nM

Structure (SMILES) | Ki
CCC[C@H](NC(=O)[C@@H]1C[C@]2(CC(c3cccc(Cl)c3)=NO2)CN1C(=O)[C@@H](NC(=O)OCCF)C(C)(C)C)C(=O)C(=O)NC1CC1 [Compound 85] | 100 to 500 nM
CCC[C@H](NC(=O)[C@@H]1C[C@]2(CC(c3cccc(Cl)c3)=NO2)CN1C(=O)[C@@H](NC(=O)NC1CCCCC1)C(C)(C)C)C(=O)C(=O)NC1CC1 [Compound 33] | < 100 nM
CCC[C@H](NC(=O)[C@@H]1C[C@]2(CC(c3cccc(Cl)c3)=NO2)CN1C(=O)[C@@H](NC(=O)OC1CCOCC1)C(C)(C)C)C(=O)C(=O)NC1CC1 [Compound 374] | 100 to 500 nM
CCC[C@H](NC(=O)[C@@H]1C[C@]2(CC(c3cccc(Cl)c3)=NO2)CN1C(=O)[C@@H](NC(=O)CC(C)(O)C(F)(F)F)C(C)(C)C)C(=O)C(=O)NC1CC1 (stereo partly drawn) [Compound 475] | 100 to 500 nM
CCC[C@H](NC(=O)[C@@H]1C[C@]2(CC(c3cccc(Cl)c3)=NO2)CN1C(=O)[C@@H](NC(=O)OCc1cccnc1C)C(C)(C)C)C(=O)C(=O)NC1CC1 [Compound 167] | 100 to 500 nM
CCC[C@H](NC(=O)[C@@H]1C[C@]2(CC(c3ccc(OC)c(Cl)c3)=NO2)CN1C(=O)[C@@H](NC(=O)O[C@H]1CCOC1)C(C)(C)C)C(=O)C(=O)NC1CC1 [Compound 15] | 100 to 500 nM
CCC[C@H](NC(=O)[C@@H]1C[C@]2(CC(c3cccc(Cl)c3)=NO2)CN1C(=O)[C@@H](Nc1cccc(OC)c1)C(C)(C)C)C(=O)C(=O)NC1CC1 [Compound 214] | > 500 nM
CCC[C@H](NC(=O)[C@@H]1C[C@]2(CC(c3ccccc3)=NO2)CN1C(=O)c1ccc[nH]1)C(=O)C(=O)NC1CC1 [Compound 584] | > 500 nM
CCC[C@H](NC(=O)[C@@H]1C[C@]2(CC(c3cccc(Cl)c3)=NO2)CN1C(=O)[C@@H](NC(=O)OC(C)Cc1cccs1)C(C)(C)C)C(=O)C(=O)NC1CC1 (stereo partly drawn) [Compound 254] | 100 to 500 nM
CCC[C@H](NC(=O)[C@@H]1C[C@]2(CC(c3cccc(Cl)c3)=NO2)CN1C(=O)CNC(=O)OCC)C(=O)C(=O)NC1CC1 [Compound 207] | > 500 nM
CCC[C@H](NC(=O)[C@@H]1C[C@]2(CC(c3cccc(Cl)c3)=NO2)CN1C(=O)[C@@H](NC(=O)C1CC(=O)N(Cc2cccs2)C1)C(C)(C)C)C(=O)C(=O)NC1CC1 (stereo partly drawn) [Compound 216] | > 500 nM
CCC[C@H](NC(=O)[C@@H]1C[C@@]2(CC(c3cccc(C(F)(F)F)c3)=NO2)CN1C(=O)[C@@H](NC(=O)O[C@H]1CCOC1)C(C)(C)C)C(=O)C(=O)NC1CC1 [Compound 509] | > 500 nM
CCC[C@H](NC(=O)[C@@H]1C[C@]2(CC(c3cccc(Cl)c3)=NO2)CN1C(=O)[C@@H](NC(=O)CC1CCOCC1)C1CCCCC1)C(=O)C(=O)NC1CC1 [Compound 37] | > 500 nM
CCC[C@H](NC(=O)[C@@H]1C[C@]2(CC(c3ccc(F)cc3)=NO2)CN1C(=O)[C@@H](NC(=O)[C@@H](NC(=O)c1cnccn1)C(C)(C)C)C(C)(C)C)C(=O)C(=O)NC1CC1 [Compound 417] | < 100 nM
CCC[C@H](NC(=O)[C@@H]1C[C@]2(CC(c3cccc(Cl)c3)=NO2)CN1C(=O)[C@@H](NC(=O)N[C@@H](C)c1ccccc1)C(C)(C)C)C(=O)C(=O)NC1CC1 [Compound 333] | 100 to 500 nM
CCC[C@H](NC(=O)[C@@H]1C[C@]2(CC(c3cccc(F)c3)=NO2)CN1C(=O)[C@@H](NC(=O)O[C@H]1CCOC1)C(C)(C)C)C(=O)C(=O)NC1CC1 [Compound 24] | 100 to 500 nM
CC(C)(C)[C@H](NC(=O)OCc1ccccc1)C(=O)N1C[C@@]2(CC(c3ccc4c(c3)OCO4)=NO2)C[C@H]1C(=O)NC(CC1CCC1)C(=O)C(N)=O (stereo partly drawn) [Compound 415] | 100 to 500 nM
CCC[C@H](NC(=O)[C@@H]1C[C@]2(CC(c3cccc(Cl)c3)=NO2)CN1C(=O)[C@@H](NC(=O)NCc1cccc(F)c1)C(C)(C)C)C(=O)C(=O)NC1CC1 [Compound 122] | 100 to 500 nM
CCC[C@H](NC(=O)[C@@H]1C[C@]2(CC(c3cccc(-c4ccncc4)c3)=NO2)CN1C(=O)[C@@H](NC(=O)O[C@H]1CCOC1)C(C)(C)C)C(=O)C(=O)NC1CC1 [Compound 425] | > 500 nM
CCC[C@H](NC(=O)[C@@H]1C[C@]2(CC(c3ccc4c(c3)OCO4)=NO2)CN1C(=O)[C@@H](NC(=O)CC1CCOCC1)C(C)(C)C)C(=O)C(N)=O [Compound 375] | > 500 nM
CCC[C@H](NC(=O)[C@@H]1C[C@]2(CC(c3cccc(Cl)c3)=NO2)CN1C(=O)[C@@H](NC(=O)CC1CCCCC1)C(C)(C)C)C(=O)C(=O)NC1CC1 [Compound 294] | 100 to 500 nM
CCC[C@H](NC(=O)[C@@H]1C[C@]2(CC(c3cccc(Cl)c3)=NO2)CN1C(=O)[C@@H](NC(=O)C(C)Cn1cnc2ccccc21)C(C)(C)C)C(=O)C(=O)NC1CC1 (stereo partly drawn) [Compound 544] | 100 to 500 nM
CCC[C@H](NC(=O)[C@@H]1C[C@]2(CC(c3cccc(Cl)c3)=NO2)CN1C(=O)[C@@H](NC(=O)CC(C)(C)C)C(C)(C)C)C(=O)C(=O)NC1CC1 [Compound 319] | 100 to 500 nM
CCC[C@H](NC(=O)[C@@H]1C[C@]2(CC(c3cccc(Cl)c3)=NO2)CN1C(=O)[C@@H](NC(=O)Nc1cccnc1)C(C)(C)C)C(=O)C(=O)NC1CC1 [Compound 576] | 100 to 500 nM
